Measurements published in patent US20220326218A1, “COMPOSITION AND METHOD FOR INHIBITING BORC COMPLEX TO TREAT CANCERS WITH NF1 DEFICIENCY AND DYSREGULATED RAS SIGNALING” (THE TRUSTEES OF DARTMOUTH COLLEGE, priority 2019, published 2022).

Key:
[1] = tested on: sNF96.2 cells; experiment: Hoechst cell death viability assay, sNF96.2; type: cell-based, human; details: sNF96.2 MPNST cells, up to 3 days, 100 μM to 0.039 μM, Hoechst 33258
Protocol: (§1) Cells were plated at 2,500 cells/well in 96-well plates and allowed to adhere overnight. Medium was removed and replaced with media containing compound starting at 100 μM, followed by 2-fold serial dilutions to generate a 10-point range of concentrations normalized with DMSO; one row was treated with DMSO as a control. Cells were incubated for the indicated timepoints. Upon collection, media was removed, cells were rinsed with PBS, and stored at −80° C. until all plates were collected. To process cells, plates were thawed with PBS, incubated with 1× saline-sodium citrate (SSC) buffer with 0.02% sodium dodecyl sulfate (SDS) for 1 hour at 37° C., followed by staining with 1 μg/mL Hoechst 33258 (Pierce). […] using a Spectramax M2 at an excitation of 355 nm and an emission of 460 nm, and absorbance was normalized to DMSO. Each experiment was repeated 2-3 times with 4 technical replicates per experiment.

[2] = tested on: erg6Δ yeast; experiment: Yeast dose response curves, control strains; type: cell-based, Saccharomyces cerevisiae; details: 30° C., 18 h, normalized to DMSO
Protocol: S. cerevisiae strains were plated at an OD600 of 0.05 in 96-well plates (Falcon) and treated with SC complete containing compound starting at 100 μM, followed by 2-fold serial dilutions to generate a 10-point range of concentrations normalized with DMSO; one row was treated with DMSO as a control. Yeast were incubated for 18 h. To process, the optical density was read using a Spectramax M2 (Molecular Devices) at a wavelength of 600 nm and normalized to DMSO. Each experiment was repeated 2-3 times with 4 technical replicates per experiment.
A high-throughput screen in Saccharomyces cerevisiae lacking a yeast homologue of NF1, IRA2 (ira2Δ) was developed and carried out to identify tool compounds that elicited synthetic lethality with NF1 loss (15). ira2Δ yeast have increased RAS-GTP, which results in increased MAPK and PKA signaling analogous to the pathways that are activated in NF1-deficient Schwann cells (17). […]
More than 5,100 structurally diverse compounds selected from and representative of a >340,000-compound library were screened. […] To determine whether Y102 was also effective in human tumor cells, the efficacy of Y102 was evaluated in two NF1-deficient human cancer cell line models of glioblastoma, U87-MG and U251-MG, and an NF1-deficient Neurofibromatosis type 1-associated MPNST cell line sNF96.2. […]

[3] = tested on: U87-MG cells; experiment: Hoechst cell death viability assay, U87-MG; type: cell-based, human
Protocol: as §1

Cn1cnnc1S/C=C/C(=O)c1ccc(F)cc1 [Y102]
sensitivity of NF1-deficient cell line to treatment [1]: sensitive | effect on growth of control strains at concentrations inhibitory to erg6Δira2Δ yeast [2]: no effect | growth inhibition, acute treatment of 2 hours compared to continuous treatment for 72 hours [3]: same degree of growth inhibition | reversibility of effects after a 2 hour treatment [3]: irreversible | concentration from which cell proliferation was inhibited ([3]; continuous treatment, seven days, normalized to day zero plating): ≥ 3.125 µM | sensitivity of NF1-deficient cell line to treatment ([3]; up to 7 days, 100 μM to 0.039 μM, Hoechst 33258): sensitive
